The nature of series [1]: 90 minute cytotoxicity assay (LDH release), renal toxicity. Format: cell-based. The text has this:
In some embodiments, a peptide provided herein has renal toxicity that is at least 10% (e.g., at least 15%, at least 20%, at least 25%, at least 30%, at least 35%, at least 40%, at least 45%, at least 50%, at least 55%, at least 60%, at least 65%, at least 65%, at least 70%, at least 75%, at least 80%, at least 85%, at least 90%, at least 95%, at least 99%) lower than the renal toxicity of the reference. The renal toxicity of a peptide can be measured in vitro using a renal proximal tubule epithelial cell (RPTEC) renal toxicity assay.
Cell culture: RPTEC were maintained in MEM media supplemented with growth factors. HEPG2 cell line was maintained in Eagle's Minimum Essential Medium (EMEM) supplemented with fetal bovine serum to a final concentration of 10%.
90 minute cytotoxicity assay: Cells were plated in a 96-well format, and after overnight incubation, media was replaced with fresh media. Serial dilutions of StAMPs from a 5 mg/mL water stock, or vehicle, were added to the cells in a final volume of 100 μl. After incubating at 37° C. for 90 min, 50 μl of cell culture media was transferred to a clear 96-well plate, incubated with 50 μl of lactate dehydrogenase (LDH) assay reagent for 10 min, and absorbance measured at 490 nm on a microplate reader.
Renal toxicity was measured after 90 minutes of incubation, while liver toxicity was measured after 48 hours of incubation with StAMPs. N/A=not tested.
On the technique in general: LDH in the medium is a marker of cell lysis.

The nature of series [2]: 48 hours cytotoxicity assay (CellTiter-Glo), liver toxicity. Format: cell-based, human. In outline:
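HepG2 cells in EMEM with 10% FBS, allowed to attach 4 h, then exposed to serially diluted StAMPs or vehicle for 48 h at 37 °C. Viability read by CellTiter-Glo luminescence.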
(In ATP-based viability assays light output follows the ATP content of the culture.)

Here are results for eleven compounds from patent US20240391965A1, “STAPLED ANTIMICROBIAL PEPTIDES (STAMPS) AND USES THEREOF” (Lytica Therapeutics, Inc., priority 2021, published 2024).

Each structure is given as a SMILES string. Values after ≈ are worked out from the molar mass of the structure shown. Starred links: 1 amine or outer side, 2 acyl side, 3 side chain; linkers in the order of their positions; H or OH if unused. Positions of bridges follow the written chain, without caps; N, C: chain ends. Residues, ends and D or L forms follow the SMILES beside them. Biphenyl(4,4'-CH2)2 = c1cc(-c2ccc(C[*:2])cc2)ccc1C[*:1]; mXylylene = c1cc(C[*:1])cc(C[*:2])c1; pXylylene = c1cc(C[*:2])ccc1C[*:1]; X1 = C(=CC[*:2])C[*:1] Bounds are passed on as bounds.

Broadly, the IC50 is the concentration needed to halve the response being measured. Low readings indicate greater potency in that assay, high ones weaker potency in that assay.

Turning to `CC[C@H](C)[C@H](NC(=O)[C@H](CC(C)C)NC(=O)[C@H](CC(C)C)NC(=O)[C@H](CC(N)=O)NC(=O)[C@H](CCCCN)NC(=O)[C@@H](NC(=O)[C@H](CCCCN)NC(=O)[C@H](CCCCN)NC(=O)CNC(=O)[C@H](C)NC(=O)[C@H](CC(C)C)NC(=O)[C@@H]1CSCc2ccc(cc2)CSC[C@H](N)C(=O)N[C@@H]([C@@H](C)CC)C(=O)N[C@@H](Cc2ccccc2)C(=O)N[C@@H](CO)C(=O)N1)[C@@H](C)CC)C(=O)N[C@@H](CO)C(=O)NCC(=O)N[C@@H](CC(C)C)C(=O)N[C@@H](CCCCN)C(=O)NCC(N)=O` [compound 37] (H-CIFSCLAGKKIKNLLISGLKG-NH2; linker 1-5 via pXylylene; N-terminus assumed), the half-maximal inhibitory concentration (IC50) in series [1] stood at 140 µg/mL (≈ 60.7 µM); in series [2], 33 µg/mL (≈ 14.3 µM).
Regarding `CC[C@H](C)[C@H](NC(=O)[C@H](CC(C)C)NC(=O)[C@H](CC(C)C)NC(=O)[C@H](CC(N)=O)NC(=O)[C@H](CCCCN)NC(=O)[C@@H](NC(=O)[C@H](CCCCN)NC(=O)[C@H](CCCCN)NC(=O)CNC(=O)[C@H](C)NC(=O)[C@H](CC(C)C)NC(=O)[C@@H]1CSCC=CCSC[C@H](N)C(=O)N[C@@H]([C@@H](C)CC)C(=O)N[C@@H](Cc2ccccc2)C(=O)N[C@@H](CO)C(=O)N1)[C@@H](C)CC)C(=O)N[C@@H](CO)C(=O)NCC(=O)N[C@@H](CC(C)C)C(=O)N[C@@H](CCCCN)C(=O)NCC(N)=O` [compound 38] (H-CIFSCLAGKKIKNLLISGLKG-NH2; linker 1-5 via X1; N-terminus assumed), the IC50 in series [1] and in series [2] was > 200 µg/mL in each case.
`CC[C@H](C)[C@H](NC(=O)CN)C(=O)N[C@H]1CSCc2cccc(c2)CSC[C@@H](C(=O)NCC(=O)N[C@@H](CCCCN)C(=O)N[C@@H](CCCCN)C(=O)N[C@H](C(=O)N[C@@H](CCCCN)C(=O)N[C@@H](CC(N)=O)C(=O)N[C@@H](CC(C)C)C(=O)N[C@@H](CC(C)C)C(=O)N[C@H](C(=O)N[C@@H](CO)C(=O)NCC(=O)N[C@@H](CC(C)C)C(=O)N[C@@H](CCCCN)C(=O)NCC(N)=O)[C@@H](C)CC)[C@@H](C)CC)NC(=O)[C@H](CC(C)C)NC(=O)[C@H](CCCCN)NC(=O)[C@H](CO)NC1=O` [compound 39] (H-GICSKLCGKKIKNLLISGLKG-NH2; linker 3-7 via mXylylene): the IC50 in series [1] was 113 µg/mL (≈ 49.7 µM); in series [2], 103 µg/mL (≈ 45.3 µM).
The like results for `CC[C@H](C)[C@H](NC(=O)CN)C(=O)N[C@H]1CSCc2ccc(cc2)CSC[C@@H](C(=O)NCC(=O)N[C@@H](CCCCN)C(=O)N[C@@H](CCCCN)C(=O)N[C@H](C(=O)N[C@@H](CCCCN)C(=O)N[C@@H](CC(N)=O)C(=O)N[C@@H](CC(C)C)C(=O)N[C@@H](CC(C)C)C(=O)N[C@H](C(=O)N[C@@H](CO)C(=O)NCC(=O)N[C@@H](CC(C)C)C(=O)N[C@@H](CCCCN)C(=O)NCC(N)=O)[C@@H](C)CC)[C@@H](C)CC)NC(=O)[C@H](CC(C)C)NC(=O)[C@H](CCCCN)NC(=O)[C@H](CO)NC1=O` [compound 40] (H-GICSKLCGKKIKNLLISGLKG-NH2; linker 3-7 via pXylylene; N-terminus assumed) were, in that order, 117 µg/mL (≈ 51.4 µM) and 124 µg/mL (≈ 54.5 µM).
As for `CC[C@H](C)[C@H](NC(=O)CN)C(=O)N[C@@H](Cc1ccccc1)C(=O)N[C@@H](CO)C(=O)N[C@@H](CCCCN)C(=O)N[C@H]1CSCc2cccc(c2)CSC[C@@H](C(=O)N[C@H](C(=O)N[C@@H](CCCCN)C(=O)N[C@@H](CC(N)=O)C(=O)N[C@@H](CC(C)C)C(=O)N[C@@H](CC(C)C)C(=O)N[C@H](C(=O)N[C@@H](CO)C(=O)NCC(=O)N[C@@H](CC(C)C)C(=O)N[C@@H](CCCCN)C(=O)NCC(N)=O)[C@@H](C)CC)[C@@H](C)CC)NC(=O)[C@H](CCCCN)NC(=O)CNC(=O)[C@H](C)NC1=O` [compound 41] (H-GIFSKCAGKCIKNLLISGLKG-NH2; linker 6-10 via mXylylene; N-terminus assumed), the IC50 was determined as 58 µg/mL (≈ 25.8 µM) in series [1] and 21 µg/mL (≈ 9.33 µM) in series [2].
The like results for `CC[C@H](C)[C@H](NC(=O)CN)C(=O)N[C@@H](Cc1ccccc1)C(=O)N[C@@H](CO)C(=O)N[C@@H](CCCCN)C(=O)N[C@@H](CC(C)C)C(=O)N[C@@H](C)C(=O)NCC(=O)N[C@H]1CSCc2cccc(c2)CSC[C@@H](C(=O)N[C@@H](CC(C)C)C(=O)N[C@@H](CC(C)C)C(=O)N[C@H](C(=O)N[C@@H](CO)C(=O)NCC(=O)N[C@@H](CC(C)C)C(=O)N[C@@H](CCCCN)C(=O)NCC(N)=O)[C@@H](C)CC)NC(=O)[C@H](CCCCN)NC(=O)[C@H]([C@@H](C)CC)NC(=O)[C@H](CCCCN)NC1=O` [compound 42] (H-GIFSKLAGCKIKCLLISGLKG-NH2; linker 9-13 via mXylylene; N-terminus assumed) were, in that order, > 200 µg/mL and > 200 µg/mL.
The like results for `CC[C@H](C)[C@H](NC(=O)CN)C(=O)N[C@@H](Cc1ccccc1)C(=O)N[C@@H](CO)C(=O)N[C@@H](CCCCN)C(=O)N[C@@H](CC(C)C)C(=O)N[C@@H](C)C(=O)NCC(=O)N[C@H]1CSCC=CCSC[C@@H](C(=O)N[C@@H](CC(C)C)C(=O)N[C@@H](CC(C)C)C(=O)N[C@H](C(=O)N[C@@H](CO)C(=O)NCC(=O)N[C@@H](CC(C)C)C(=O)N[C@@H](CCCCN)C(=O)NCC(N)=O)[C@@H](C)CC)NC(=O)[C@H](CCCCN)NC(=O)[C@H]([C@@H](C)CC)NC(=O)[C@H](CCCCN)NC1=O` [compound 43] (H-GIFSKLAGCKIKCLLISGLKG-NH2; linker 9-13 via X1; N-terminus assumed) were, in that order, > 200 µg/mL and > 200 µg/mL.
The like results for `CC[C@H](C)[C@H](NC(=O)CN)C(=O)N[C@@H](Cc1ccccc1)C(=O)N[C@@H](CO)C(=O)N[C@@H](CCCCN)C(=O)N[C@@H](CC(C)C)C(=O)N[C@@H](C)C(=O)NCC(=O)N[C@@H](CCCCN)C(=O)N[C@@H](CCCCN)C(=O)N[C@H](C(=O)N[C@@H](CCCCN)C(=O)N[C@@H](CC(N)=O)C(=O)N[C@@H](CC(C)C)C(=O)N[C@@H](CC(C)C)C(=O)N[C@H](C(=O)N[C@H]1CSCc2cccc(c2)CSC[C@@H](C(N)=O)NC(=O)[C@H](CCCCN)NC(=O)[C@H](CC(C)C)NC(=O)CNC1=O)[C@@H](C)CC)[C@@H](C)CC` [compound 44] (H-GIFSKLAGKKIKNLLICGLKC-NH2; linker 17-21 via mXylylene; N-terminus assumed) were, in that order, 86 µg/mL (≈ 36.6 µM) and 48 µg/mL (≈ 20.4 µM).
Take `CC[C@H](C)[C@H](NC(=O)CN)C(=O)N[C@@H](Cc1ccccc1)C(=O)N[C@@H](CO)C(=O)N[C@@H](CCCCN)C(=O)N[C@@H](CC(C)C)C(=O)N[C@@H](C)C(=O)NCC(=O)N[C@@H](CCCCN)C(=O)N[C@@H](CCCCN)C(=O)N[C@H](C(=O)N[C@@H](CCCCN)C(=O)N[C@@H](CC(N)=O)C(=O)N[C@@H](CC(C)C)C(=O)N[C@@H](CC(C)C)C(=O)N[C@H](C(=O)N[C@H]1CSCc2ccc(cc2)CSC[C@@H](C(N)=O)NC(=O)[C@H](CCCCN)NC(=O)[C@H](CC(C)C)NC(=O)CNC1=O)[C@@H](C)CC)[C@@H](C)CC` [compound 45] (H-GIFSKLAGKKIKNLLICGLKC-NH2; linker 17-21 via pXylylene; N-terminus assumed): the IC50 in series [1] was determined as 105 µg/mL (≈ 44.7 µM); in series [2], 83 µg/mL (≈ 35.3 µM).
Taken in the same sequence, the figures for `CC[C@H](C)[C@H](NC(=O)[C@H](CC(C)C)NC(=O)[C@H](CC(C)C)NC(=O)[C@H](CC(N)=O)NC(=O)[C@H](CCCCN)NC(=O)[C@@H](NC(=O)[C@H](CCCCN)NC(=O)[C@@H]1CSCc2ccc(cc2)-c2ccc(cc2)CSC[C@H](NC(=O)CN)C(=O)N[C@@H](Cc2ccccc2)C(=O)N[C@@H](CO)C(=O)N[C@@H](CCCCN)C(=O)N[C@@H](CC(C)C)C(=O)N[C@@H](C)C(=O)NCC(=O)N1)[C@@H](C)CC)C(=O)N[C@@H](CO)C(=O)NCC(=O)N[C@@H](CC(C)C)C(=O)N[C@@H](CCCCN)C(=O)NCC(N)=O` [compound 53] (H-GCFSKLAGCKIKNLLISGLKG-NH2; linker 2-9 via Biphenyl(4,4'-CH2)2; N-terminus assumed) were 40 µg/mL (≈ 17.2 µM) and 78 µg/mL (≈ 33.5 µM).
Taken in the same sequence, the figures for `CC[C@H](C)[C@H](NC(=O)CN)C(=O)N[C@H]1CSCc2ccc(cc2)-c2ccc(cc2)CSC[C@@H](C(=O)N[C@H](C(=O)N[C@@H](CCCCN)C(=O)N[C@@H](CC(N)=O)C(=O)N[C@@H](CC(C)C)C(=O)N[C@@H](CC(C)C)C(=O)N[C@H](C(=O)N[C@@H](CO)C(=O)NCC(=O)N[C@@H](CC(C)C)C(=O)N[C@@H](CCCCN)C(=O)NCC(N)=O)[C@@H](C)CC)[C@@H](C)CC)NC(=O)[C@H](CCCCN)NC(=O)CNC(=O)[C@H](C)NC(=O)[C@H](CC(C)C)NC(=O)[C@H](CCCCN)NC(=O)[C@H](CO)NC1=O` [compound 56] (H-GICSKLAGKCIKNLLISGLKG-NH2; linker 3-10 via Biphenyl(4,4'-CH2)2; N-terminus assumed) were 17 µg/mL (≈ 7.41 µM) and 34 µg/mL (≈ 14.8 µM).
